Source: patent publication US11834432B2, “Substituted amino six-membered nitric heterocyclic ring compound and preparation and use thereof” (SHANGHAI INSTITUTE OF MATERIA MEDICA, CHINESE ACADEMY OF …, priority 2016, dated 2023)
pIC50: −log10 of the molar value. Values joined by “and” are separate entries in the source; they are usually repeats but may differ in a detail not shown here. Identical values can stand only once.

Assays:
SNU16 cells = experiment: Inhibition of proliferation of SNU16 cells (CCK-8); type: cell-based; conditions: Homo sapiens, SNU-16, 72 h
Protocol: The inhibitory effect on proliferation of SNU16 cells of a compound was examined by CCK-8 Cell Counting Kit (Dojindo). The steps are as follows: SNUI 6 cells at Logarithmic growth phase were seeded in a 96-well culture plate at appropriate density, 90 ul for each well. After cultured overnight, different concentrations of drugs were added and treated for 72 h, while solvent control well was set (negative control). After 72 h, the influence of the compound on the proliferation of cells was observed by CCK-8 cell counting kit (Dojindo). 10 μL of CCK-8 reagent was added to each well. After incubated for 2-4 hours in a 37° C. incubator, the plate was read with SpectraMax 190 microplate reader at wavelength 450 nm.
The IC50 values were obtained by four-parameter regression analysis using the software supplied with the microplate reader.

[1] = test system: human gastric cancer SNU-16 subcutaneously transplanted tumor; experiment: Growth of subcutaneously transplanted tumor in human gastric cancer SNU-16 nude mice; type: in vivo
Protocol: The human gastric cancer SNU-16 cell strain was preserved in our laboratory.
S10 groups (30 mg/kg and 10 mg/kg) were orally administered once a day for 21 days; AZD4547 group (10 mg/kg) was administered orally once a day for 21 days; solvent control group was given the same amount of water for injection.

[2] = test system: human lung cancer NCI-H1581 subcutaneously transplanted tumor; experiment: Growth of subcutaneously transplanted tumor in human lung cancer NCI-H1581 nude mice
Protocol: The cell strain was inoculated in the right axilla of the nude mice, and the amount of cells inoculated was 5×10^6/mouse to form transplanted tumor, which was directly inoculated and used.
The tumor tissue in the prosperous growth period was cut into 1.5 mm^3, and inoculated subcutaneously in the right axilla of the nude mice under aseptic conditions. The diameter of the transplanted tumor in the nude mice was measured with a vernier caliper, and the animals were randomly grouped when the average volume of tumors was about 150-160 mm^3. […] The solvent control group was given an equal amount of water for injection. The diameter of the transplanted tumor was measured twice a week during the entire experiment, and the body weight of the mice was also weighed. The calculation formula of tumor volume (TV) is: TV=1/2×a×b^2, where a and b respectively represent the length and width of the tumor. The relative tumor volume (RTV) was calculated based on the measured results and the formula was: RTV=Vt/V0, where V0 is the tumor volume measured at grouping and dosing (d0), and Vt is the tumor volume at each measurement.

CNC(=O)c1cccc2cc(Oc3ccnc(NC(=O)c4ccc(N5C[C@@H](C)N[C@@H](C)C5)cc4)c3)ccc12 [Compound S10]
pIC50 (SNU16 cells): 8.21 | inhibition at 0.01 µM (SNU16 cells; 10 nM, 72 h, read-out: Inhibition ratio (%)): 59.6% | inhibition at 0.1 µM (SNU16 cells; 100 nM, 72 h, read-out: Inhibition ratio (%)): 62.1% | inhibition at 1 µM (SNU16 cells; 1000 nM, 72 h, read-out: Inhibition ratio (%)): 59.7% | Body weight (g) d0 ([1]; 10 mg/kg po qd/21, d0): 19.9 g | TV (mm^3, mean ± SD) d0 ([1]; 10 mg/kg po qd/21, d0): 106 ± 33 mm^3 | Body weight (g) d21 ([1]; 10 mg/kg po qd/21, d21): 21.4 g | RTV (mean ± SD) ([1]; 10 mg/kg po qd/21, d21): 3.48 ± 2.29 | T/C (%) ([1]; 10 mg/kg po qd/21, d21): 25.35% and 25% | TV (mm^3, mean ± SD) d21 ([1]; 10 mg/kg po qd/21, d21): 322 ± 107 mm^3 | Body weight change, condition and mortality of mice during the experiment ([1]; 30 mg/kg po once a day for 21 days): average weight of mice in the S10 group (30 mg/kg) was decreased, but the mice were still in good condition and no mice died | Body weight (g) d0 ([1]; 30 mg/kg po qd/21, d0): 21.2 g | TV (mm^3, mean ± SD) d0 ([1]; 30 mg/kg po qd/21, d0): 106 ± 22 mm^3 | Body weight (g) d21 ([1]; 30 mg/kg po qd/21, d21): 17.0 g | RTV (mean ± SD) ([1]; 30 mg/kg po qd/21, d21): 1.19 ± 0.38 | T/C (%) ([1]; 30 mg/kg po qd/21, d21): 8.67% and 9% | TV (mm^3, mean ± SD) d21 ([1]; 30 mg/kg po qd/21, d21): 125 ± 47 mm^3 | Body weight (g) d0 ([2]; 2.5 mg/kg po qd/14, d0): 19.8 g | TV (mm^3, mean SD) d0 ([2]; 2.5 mg/kg po qd/14, d0): 157 ± 43 mm^3 | Body weight (g) d14 ([2]; 2.5 mg/kg po qd/14, d14): 21.8 g | RTV (mean SD) ([2]; 2.5 mg/kg po qd/14, d14): 8.36 ± 2.17 | T/C (%) ([2]; 2.5 mg/kg po qd/14, d14): 40.19% and 40% | TV (mm^3, mean SD) d14 ([2]; 2.5 mg/kg po qd/14, d14): 1287 ± 412 mm^3 | Body weight (g) d0 ([2]; 5 mg/kg po qd/14, d0): 19.0 g | TV (mm^3, mean SD) d0 ([2]; 5 mg/kg po qd/14, d0): 154 ± 53 mm^3 | Body weight (g) d14 ([2]; 5 mg/kg po qd/14, d14): 21.5 g | RTV (mean SD) ([2]; 5 mg/kg po qd/14, d14): 3.57 ± 0.91 | T/C (%) ([2]; 5 mg/kg po qd/14, d14): 17.18% and 17% | TV (mm^3, mean SD) d14 ([2]; 5 mg/kg po qd/14, d14): 524 ± 122 mm^3 | Body weight (g) d0 ([2]; 10 mg/kg po qd/14, d0): 19.9 g | TV (mm^3, mean SD) d0 ([2]; 10 mg/kg po qd/14, d0): 155 ± 45 mm^3 | Body weight (g) d14 ([2]; 10 mg/kg po qd/14, d14): 23.0 g | RTV (mean SD) ([2]; 10 mg/kg po qd/14, d14): 2.09 ± 0.77 | T/C (%) ([2]; 10 mg/kg po qd/14, d14): 10.03% and 10% | TV (mm^3, mean SD) d14 ([2]; 10 mg/kg po qd/14, d14): 338 ± 223 mm^3 | Condition and mortality of animals during the experiment ([2]; 10, 5 and 2.5 mg/kg po once a day for two weeks): the animals in each group were in good condition and there was no mice died
